Laboratory results taken from patent publication US7358390B2, “Polymorphic forms of nateglinide” (Teva Pharmaceutical Industries Ltd., priority 2002, dated 2008).
Entries after “also recorded” stand apart in the source; their conditions may differ.

Legend:
[1] = Thermal stability: transformation of crystalline forms on heating or drying, form checked by XRPD; type: physicochemical; settings: for crystal form obtained upon drying/heating: heating under ambient or reduced pressure, generally about 40-80° C.
Description: The various crystalline forms are related to each other in that drying of one form may result in a transformation to another form, namely nateglinide Forms A, B, D, E, F, G, H, I, J, K, L, M, N, Q, S, T, V, Z, α, β, δ, γ, ε, θ and Ω. The drying is carried out by heating a sample under ambient or reduced pressure. Generally, a preferred temperature is from about 40° C. to about 80° C., more preferably under reduced pressure. […] The term “stable” as used herein refers to a polymorphic change of less than about 5% by weight, more preferably less than about 2%, particularly for Form δ.
(§1) X-Ray diffraction was performed on X-Ray powder diffractometer, Scintag®, variable goniometer, Cu-tube, solid state detector. Sample holder: A round standard aluminum sample holder with round zero background quartz plate.
(§2) The sample was put on the sample holder and immediately analyzed as is. • Scanning parameters: Range: 2-40 deg 2θ, Continuos Scan, Rate: 3 deg./min. DSC: • DSC821^e Mettler Toledo®, Sample weight: 3-5 mg, Heating rate: 10° C./min, Number of holes in the crucible: 3 TGA: • Mettler TG50®, Sample weight: 7-15 mg, Heating rate: 10° C./min FTIR: • Perkin-Elmer®, Spectrum One FTIR spectrometer, Range: 4000-400 cm−1, no. of scans: 16, resolution: 4.0 cm−1, DRIFT technique.
Nateglinide Form delta (10 grams), with about 3% heptane (wt/wt), was dried in a fluidized bed drier for 4 hours at 60° C. Residual heptane was 1578 ppm af. Ethyl acetate is under detection limit. Polymorphic form of the dry product is delta.
Sample of nateglinide form U (˜1 g) was introduced into a 6-gram vial and heated over 8.5 h in a 100° C. oil bath. The vial were extracted from the bath.
Sample of nateglinide form U (˜0.5 g) was heated to 120° C. for 1 h in an atmospheric pressure.
Sample of nateglinide form δ (˜0.5 g) was heated to 120° C. for 1 h in an atmospheric pressure.
The product of example 11 was dried at 50° C. in a vacuum oven overnight, and analyzed by XRD.
Nateglinide (40 grams) Form delta (1.5% heptane) was dried in a stirred reactor (7-10 rpm) under 60 mmHg vacuum and at 60° C. After 6 hours of drying, the residual solvent of the material was 613 ppm of heptane.

[2] = Storage of crystalline forms at room temperature, form checked by XRPD; type: physicochemical; settings: for crystal form after storage at RT: room temperature and pressure, open bottle, 24 h (about a day)
Description: The various crystalline forms are also analyzed by Thermal Gravimetric Analysis (TGA). […] In contrast to the above listed forms, TGA profiles of forms L, P, U, α, δ and σ show no significant weight loss. These polymorphic forms of nateglinide are free of bound solvents, i.e., less than about 2% LOD. Table III lists the solvents used for the preparation for nateglinide solvated forms, as well as LOD values based on TGA analysis.
Storage at room temperature and pressure may also cause a transition of one form to another.
as §1, §2

[3] = second endotherm at 138.2° C. after grinding; cited from earlier work
[4] = Exposure of NTG Form H to solvent vapors; type: physicochemical; settings: 4 d, room temperature
Description: Nateglinide (3.50 g) was added to a polypropylene can and weighed. The can was introduced into a bigger polypropylene container containing a solvent, and stored at room temperature. The can was removed from the container and weighed (Wfinal). The can content was divided into 2 portions. One portion was dried at a temperature of 55° C. and a pressure of 20-30 mmHg to constant weight (±0.01 g).

[5] = Stability at about 40° C. and about 75% relative humidity; type: physicochemical; settings: about 40° C., about 75% relative humidity, at least about 3 months
Description: Crystalline Form δ is stable at a temperature of about 40° C. and a relative humidity of about 75% for at least about 3 months.

[6] = 120° C., 1 h, atmospheric pressure

CC(C)[C@H]1CC[C@H](C(=O)N[C@H](Cc2ccccc2)C(=O)O)CC1 [Form C, nateglinide]
crystal form obtained upon drying/heating [1]: convert to Form B; also recorded: Form B or α

CC(C)[C@H]1CC[C@H](C(=O)N[C@H](Cc2ccccc2)C(=O)O)CC1 [Form G, nateglinide]
crystal form obtained upon drying/heating [1]: convert to Form B

CC(C)[C@H]1CC[C@H](C(=O)N[C@H](Cc2ccccc2)C(=O)O)CC1 [Form β, nateglinide]
crystal form obtained upon drying/heating [1]: convert to Form B

CC(C)[C@H]1CC[C@H](C(=O)N[C@H](Cc2ccccc2)C(=O)O)CC1 [Form E, nateglinide]
crystal form obtained upon drying/heating [1]: convert to Form B

CC(C)[C@H]1CC[C@H](C(=O)N[C@H](Cc2ccccc2)C(=O)O)CC1 [Form F, nateglinide]
crystal form obtained upon drying/heating [1]: convert to Form B; also recorded: a mixture of Form B and G

CC(C)[C@H]1CC[C@H](C(=O)N[C@H](Cc2ccccc2)C(=O)O)CC1 [Form ε, nateglinide]
crystal form obtained upon drying/heating [1]: Form H

CC(C)[C@H]1CC[C@H](C(=O)N[C@H](Cc2ccccc2)C(=O)O)CC1 [Form I, nateglinide]
crystal form after storage at RT [2]: converts to Form L | crystal form after storage at RT ([2]; listed as I): Form L

CC(C)[C@H]1CC[C@H](C(=O)N[C@H](Cc2ccccc2)C(=O)O)CC1 [Form Z, nateglinide]
crystal form obtained upon drying/heating [1]: convert to Form B

CC(C)[C@H]1CC[C@H](C(=O)N[C@H](Cc2ccccc2)C(=O)O)CC1 [Form V, nateglinide]
crystal form obtained upon drying/heating [1]: Form H

CC(C)[C@H]1CC[C@H](C(=O)N[C@H](Cc2ccccc2)C(=O)O)CC1 [Form B, nateglinide]
stability during grinding (DSC) [3]: unstable and susceptible to change

CC(C)[C@H]1CC[C@H](C(=O)N[C@H](Cc2ccccc2)C(=O)O)CC1 [Form T, nateglinide]
crystal form after storage at RT [2]: converts to Form E | crystal form after storage at RT ([2]; listed as T): Form E | crystal form obtained upon drying/heating [1]: convert to Form B; also recorded: a mixture of Form B and G

CC(C)[C@H]1CC[C@H](C(=O)N[C@H](Cc2ccccc2)C(=O)O)CC1 [Form H, nateglinide]
Form wet after exposure to solvent vapors ([4]; Acetone vapors): stable | Form wet after exposure to solvent vapors ([4]; Water vapors): stable

CC(C)[C@H]1CC[C@H](C(=O)N[C@H](Cc2ccccc2)C(=O)O)CC1 [Form M, nateglinide]
crystal form obtained upon drying/heating [1]: Form L

CC(C)[C@H]1CC[C@H](C(=O)N[C@H](Cc2ccccc2)C(=O)O)CC1 [Form Q, nateglinide]
crystal form after storage at RT [2]: converts to Form Y | crystal form after storage at RT ([2]; listed as Q): Form Y, which contains | crystal form obtained upon drying/heating [1]: convert to Form B

CC(C)[C@H]1CC[C@H](C(=O)N[C@H](Cc2ccccc2)C(=O)O)CC1 [Form Ω, nateglinide]
crystal form after drying (XRD) ([1]; 50° C., vacuum oven, overnight): mixture of Form omega and Form Z | crystal form obtained upon drying/heating [1]: convert to Form B

CC(C)[C@H]1CC[C@H](C(=O)N[C@H](Cc2ccccc2)C(=O)O)CC1 [Form U, nateglinide]
crystal form after heating (XRPD) [1, 6]: Form U | crystal form after heating (XRPD) ([1]; about 100° C. oil bath, 8.5 h): does not undergo a transition | crystal form after heating (XRPD) ([1]; about 100° C. oil bath, 8.5 h, listed as form U): Form U

CC(C)[C@H]1CC[C@H](C(=O)N[C@H](Cc2ccccc2)C(=O)O)CC1 [acetonitrile solvate of Form Epsilon, nateglinide]
crystal form obtained upon drying/heating [1]: Form B

CC(C)[C@H]1CC[C@H](C(=O)N[C@H](Cc2ccccc2)C(=O)O)CC1 [Form J, nateglinide]
XRD pattern after storage at RT ([2]; RT, overnight): changed after storage at RT | crystal form obtained upon drying/heating [1]: convert to Form B; also recorded: Form B or β

CC(C)[C@H]1CC[C@H](C(=O)N[C@H](Cc2ccccc2)C(=O)O)CC1 [nitromethane solvates of Form Epsilon, nateglinide]
crystal form obtained upon drying/heating [1]: Forms H or P

CC(C)[C@H]1CC[C@H](C(=O)N[C@H](Cc2ccccc2)C(=O)O)CC1 [Form A, nateglinide]
crystal form after storage at RT [2]: partially converts to Form B | crystal form after storage at RT ([2]; listed as A): conversion to Form B | crystal form obtained upon drying/heating [1]: convert to Form B

CC(C)[C@H]1CC[C@H](C(=O)N[C@H](Cc2ccccc2)C(=O)O)CC1 [Form θ, nateglinide]
crystal form obtained upon drying/heating [1]: convert to Form B

CC(C)[C@H]1CC[C@H](C(=O)N[C@H](Cc2ccccc2)C(=O)O)CC1 [Form δ, nateglinide]
stability on storage [5]: stable | stability when heated ([1]; 60° C. overnight (at least about 8 hours)): stable | crystal form after heating (XRPD) [1, 6]: Form B | crystal form after heating (XRPD) ([1]; 120° C., 1 h, atmospheric pressure, listed as form δ): Form B | polymorphic form after drying ([1]; fluidized bed drier, 4 hours, 60° C.): delta | crystal form obtained upon drying/heating [1]: convert to Form B | polymorph after drying ([1]; stirred reactor (7-10 rpm), 60 mmHg vacuum, 60° C., 6 hours): remained delta form

CC(C)[C@H]1CC[C@H](C(=O)N[C@H](Cc2ccccc2)C(=O)O)CC1 [Form N, nateglinide]
crystal form obtained upon drying/heating [1]: Form L
